In paper PMC12135072 (RSC Medicinal Chemistry, 2025):

How the values were obtained:
[1] = test system: MCF7 (ATCC – HTB-22, breast carcinoma); experiment: MTT cell viability assay, MCF7; format: cell-based; details: Homo sapiens, MCF7, read-out: IC50 MCF7
[2] = test system: A549 (ATCC – CCL-185, lung carcinoma); experiment: MTT cell viability assay, A549; format: cell-based; details: Homo sapiens, A549, read-out: IC50 A549
[3] = test system: HCT116 (ATCC – CCL-247, colon carcinoma); experiment: MTT cell viability assay, HCT116; format: cell-based; details: Homo sapiens, HCT-116, read-out: IC50 HCT116
[4] = test system: MRC5 (ATCC – CCL-171, human diploid fibroblast cell line); experiment: cells; details: MRC5, read-out: IC50 MRC5

Row | Structure (SMILES) | IC50 [1] [µM] | IC50 [2] [µM] | IC50 [3] [µM] | IC50 [4] [µM]
1 | Cc1cncn1-c1ccc(C2C(C#N)=C(N)OC3=C2C(=O)CC(C)(C)C3)cc1 (stereo not shown) [Compound 8c, 2-Amino-7,7-dimethyl-4-(4-(5-methyl-1H-imidazol-1-yl)phenyl)-5-oxo-5,6,7,8-tetrahydro-4H-chromene-3-carbonitrile] | 83.2 ± 2.11 | 133 ± 5.81 | 162 ± 6.91 | > 200
2 | Cc1ccn(-c2ccc(C3C(C#N)=C(N)OC4=C3C(=O)CCC4)cc2)n1 (stereo not shown) [Compound 7a, 2-amino-4-(4-(3-methyl-1H-pyrazol-1-yl)phenyl)-5-oxo-5,6,7,8-tetrahydro-4H-chromene-3-carbonitrile] | 190 ± 5.34 | 89.7 ± 4.38 | 139 ± 3.89 | > 200
3 | COc1ccc(-n2cc(COc3ccc(C4C(C#N)=C(N)Oc5c4c(=O)oc4ccccc54)cc3)nn2)cc1 (stereo not shown) [Compound 15e, 2-Amino-4-(4-((1-(4-methoxyphenyl)-1H-1,2,3-triazol-4-yl)methoxy)phenyl)-5-oxo-4H,5H-pyrano[3,2-c]chromene-3-carbonitrile] | > 200 | > 200 | > 200 | > 200
4 | N#CC1=C(N)OC2=C(C(=O)CCC2)C1c1ccc(-n2ccc(C(F)(F)F)n2)cc1 (stereo not shown) [Compound 7e, 2-Amino-5-oxo-4-(4-(3-(trifluoromethyl)-1H-pyrazol-1-yl)phenyl)-5,6,7,8-tetrahydro-4H-chromene-3-carbonitrile] | 15 ± 0.78 | 18 ± 0.45 | 72.2 ± 0.96 | > 200
5 | Cc1ccc(-n2cc(COc3ccc(C4C(C#N)=C(N)Oc5cc(C)oc(=O)c54)cc3)nn2)cc1 (stereo not shown) [Compound 17d, 2-Amino-7-methyl-5-oxo-4-(4-((1-(p-tolyl)-1H-1,2,3-triazol-4-yl)methoxy)phenyl)-4H,5H-pyrano[4,3-b]pyran-3-carbonitrile] | > 200 | > 200 | > 200 | > 200
6 | Cc1cc2c(c(=O)o1)C(c1ccc(OCc3cn(-c4ccc(Cl)cc4)nn3)cc1)C(C#N)=C(N)O2 (stereo not shown) [Compound 17b, 2-Amino-4-(4-((1-(4-chlorophenyl)-1H-1,2,3-triazol-4-yl)methoxy)phenyl)-7-methyl-5-oxo-4H,5H-pyrano[4,3-b]pyran-3-carbonitrile] | 36.06 ± 0.31 | 20.4 ± 1.87 | 47.4 ± 4.13 | > 200
7 | N#CC1=C(N)Oc2c(c(=O)oc3ccccc23)C1c1ccc(OCc2cn(-c3ccccc3)nn2)cc1 (stereo not shown) [Compound 15a, 2-Amino-5-oxo-4-(4-((1-phenyl-1H-1,2,3-triazol-4-yl)methoxy)phenyl)-4H,5H-pyrano[3,2-c]chromene-3-carbonitrile] | > 200 | > 200 | > 200 | 146.5 ± 0.53
8 | N#CC1=C(N)Oc2c(c(=O)oc3ccccc23)C1c1ccc(-n2cnnn2)cc1 (stereo not shown) [Compound 15g, 4-(4-(1H-Tetrazol-1-yl)phenyl)-2-amino-5-oxo-4H,5H-pyrano[3,2-c]chromene-3-carbonitrile] | > 200 | > 200 | > 200 | > 200
9 | N#CC1=C(N)OC2=C(C(=O)CCC2)C1c1ccc(-n2cc(Br)cn2)cc1 (stereo not shown) [Compound 7d, 2-Amino-4-(4-(4-bromo-1H-pyrazol-1-yl)phenyl)-5-oxo-5,6,7,8-tetrahydro-4H-chromene-3-carbonitrile] | 56.1 ± 3.79 | 23.6 ± 1.29 | 45.7 ± 0.67 | > 200
10 | Cc1cc2c(c(=O)o1)C(c1ccc(-n3ccnn3)cc1)C(C#N)=C(N)O2 (stereo not shown) [Compound 17f, 4-(4-(1H-1,2,3-Triazol-1-yl)phenyl)-2-amino-7-methyl-5-oxo-4H,5H-pyrano[4,3-b]pyran-3-carbonitrile] | 30.3 ± 1.73 | > 200 | > 200 | > 200
11 | Cc1ccc(-n2cc(COc3ccc(C4C(C#N)=C(N)Oc5c4c(=O)oc4ccccc54)cc3)nn2)cc1 (stereo not shown) [Compound 15d, 2-Amino-5-oxo-4-(4-((1-(p-tolyl)-1H-1,2,3-triazol-4-yl)methoxy)phenyl)-4H,5H-pyrano[3,2-c]chromene-3-carbonitrile] | > 200 | > 200 | > 200 | > 200
12 | CCc1nccn1-c1ccc(C2C(C#N)=C(N)OC3=C2C(=O)CC(C)(C)C3)cc1 (stereo not shown) [Compound 8d, 2-Amino-4-(4-(2-ethyl-1H-imidazol-1-yl)phenyl)-7,7-dimethyl-5-oxo-5,6,7,8-tetrahydro-4H-chromene-3-carbonitrile] | > 200 | 19.8 ± 0.94 | 137 ± 5.82 | > 200
13 | N#CC1=C(N)Oc2c(c(=O)oc3ccccc23)C1c1ccc(-n2ccnn2)cc1 (stereo not shown) [Compound 15f, 4-(4-(1H-1,2,3-Triazol-1-yl)phenyl)-2-amino-5-oxo-4H,5H-pyrano[3,2-c]chromene-3-carbonitrile] | 145 ± 2.75 | 72.9 ± 2.26 | 163 ± 5.45 | 156 ± 0.48
14 | COc1ccc(-n2cc(COc3ccc(C4C(C#N)=C(N)Oc5cc(C)oc(=O)c54)cc3)nn2)cc1 (stereo not shown) [Compound 17e, 2-Amino-4-(4-((1-(4-methoxyphenyl)-1H-1,2,3-triazol-4-yl)methoxy)phenyl)-7-methyl-5-oxo-4H,5H-pyrano[4,3-b]pyran-3-carbonitrile] | 52.2 ± 1.34 | > 200 | > 200 | > 200
15 | CC1(C)CC(=O)C2=C(C1)OC(N)=C(C#N)C2c1ccc(-n2cnc(Br)c2)cc1 (stereo not shown) [Compound 8e, 2-Amino-4-(4-(4-bromo-1H-imidazol-1-yl)phenyl)-7,7-dimethyl-5-oxo-5,6,7,8-tetrahydro-4H-chromene-3-carbonitrile] | 74.87 ± 0.17 | 30.6 ± 1.85 | 77.6 ± 1.58 | > 200
16 | Cc1cc2c(c(=O)o1)C(c1ccc(-n3cnnn3)cc1)C(C#N)=C(N)O2 (stereo not shown) [Compound 17g, 4-(4-(1H-Tetrazol-1-yl)phenyl)-2-amino-7-methyl-5-oxo-4H,5H-pyrano[4,3-b]pyran-3-carbonitrile] | 39.2 ± 2.71 | 164 ± 3.26 | > 200 | > 200
17 | Cc1cnn(-c2ccc(C3C(C#N)=C(N)OC4=C3C(=O)CCC4)cc2)c1 (stereo not shown) [Compound 7b, 2-Amino-4-(4-(4-methyl-1H-pyrazol-1-yl)phenyl)-5-oxo-5,6,7,8-tetrahydro-4H-chromene-3-carbonitrile] | 24 ± 2.27 | 147 ± 3.61 | 163 ± 3.14 | > 200
18 | N#CC1=C(N)Oc2c(c(=O)oc3ccccc23)C1c1ccc(OCc2cn(-c3ccc(Br)cc3)nn2)cc1 (stereo not shown) [Compound 15c, 2-Amino-4-(4-((1-(4-bromophenyl)-1H-1,2,3-triazol-4-yl)methoxy)phenyl)-5-oxo-4H,5H-pyrano[3,2-c]chromene-3-carbonitrile] | > 200 | > 200 | > 200 | 66.9 ± 1.6
19 | Cc1cc2c(c(=O)o1)C(c1ccc(OCc3cn(-c4ccc(Br)cc4)nn3)cc1)C(C#N)=C(N)O2 (stereo not shown) [Compound 17c, 2-Amino-4-(4-((1-(4-bromophenyl)-1H-1,2,3-triazol-4-yl)methoxy)phenyl)-7-methyl-5-oxo-4H,5H-pyrano[4,3-b]pyran-3-carbonitrile] | > 200 | > 200 | > 200 | > 200
